Earlier results as cited in publication PMC10818380, “Triphenylphosphonium Analogs of Short Peptide Related to Bactenecin 7 and Oncocin 112 as Antimicrobial Agents” (Pharmaceutics, 2024).
≈ marks a conversion by molar mass, not a printed value.

Key:
B. subtilis 168 = tested on: B. subtilis 168; set-up: method as in PMID 33922611; conditions: cited from earlier work
B. subtilis CFR = conditions: cited from earlier work

In the case of `O=C(N[C@H](CO)[C@H](O)c1ccc([N+](=O)[O-])cc1)C(Cl)Cl` [Chloramphenicol], the MIC (B. subtilis 168) is listed as 12 µM (≈ 3.88 µg/mL) and the MIC (B. subtilis CFR) is listed as 90 µM (≈ 29.1 µg/mL).
